The format of series [1] is in vivo, mice (male NIH/HSD). The settings on record: for ACTIVITY (time spent ambulating in an open field): mean ± SEM. How it is done: Values represent means ± standard error of the mean. The number of animals examined in the forced swim test was: VEH, 40; ACPC 25 mg/kg, 11 and 50-600 mg/kg, 10. In the open field, the number of animals tested was: VEH 23; 50 and 600 mg/kg, 5; and 100-400 mg/kg, 10. Male NIH/HSD mice (25-30 g) were injected i.p. with ACPC dissolved in saline. Controls received an equivalent volume of saline. Fifteen minutes later, mice were placed in a cylinder (diameter: 10 cm; height: 25 cm) filled with 6 cm of water (22°-25° C.) and the duration of immobility during the last four minutes of forced swim was measured as described. (8) The ambulatory time in an open field was measured for five minutes, fifteen minutes after injection of ACPC as described in Table 1.
(§1) Glycine (800 mg/kg) or an equivalent volume of saline was administered intraperitoneally to NIH/HSD mice 45 minutes prior to ACPC (400 mg/kg). Fifteen minutes after ACPC administration, animals were evaluated in the forced swim test or in an open field as described in Table 1. This dose of glycine was selected based on a previous report (40), showing that parenteral administration of large doses is required to elevate cerebral levels of glycine. […] Amino acid levels were determined using HPLC/EC with an isocratic separation method and pre-column amino acid derivatization with o-pthalaldehyde and β-mercaptoethano (41).

The nature of series [2]: forced swim test, duration of immobility during last 4 minutes of 6 minute swim. It counts as in vivo, mice (male NIH/HSD). The settings on record: for IMMOBILITY %: change versus control; for minimal effective dose: Mus musculus, read-out: minimum effective dose, swim-induced immobility. How it is done: (§2) Certain exemplary compounds encompassed hereby were evaluated pharmacologically in mice using the forced swim (8) and/or tail suspension (9) tests. These tests were initially designed to detect potential antidepressant agents (13, 14) based on the abilities of clinically effective antidepressants to reduce the immobility that animals typically display after active and unsuccessful escape attempts when subjected to these inescapable stressors. Moreover, the predictive validity (15) and pharmacological specificity (13, 14) of these tests has led to the proposal that they represent animal models of depression. (16)
The duration of immobility was measured during the […]
Values represent means ± standard error of the mean. The number of animals examined in the forced swim test was: VEH, 40; ACPC 25 mg/kg, 11 and 50-600 mg/kg, 10. In the open field, the number of animals tested was: VEH 23; 50 and 600 mg/kg, 5; and 100-400 mg/kg, 10. Male NIH/HSD mice (25-30 g) were injected i.p. with ACPC dissolved in saline. Controls received an equivalent volume of saline. […] (8) The ambulatory time in an open field was measured for five minutes, fifteen minutes after injection of ACPC as described in Table 1.
as §1

Another series concerns NMDA receptor complex. The settings on record: cited from earlier work.
Series [3] can be described thus: forced swim and/or tail suspension tests (overall conclusion). It counts as in vivo, mice. How it is done: as §2
Series [4] is described as follows: behavioral effects and lethality observed in connection with forced swim. The settings on record: for behavioral effects prior to forced swim: I2CA 25-200, HA-966 2.5-10, ACBC 50-100 mg/kg; for lethality combined with forced swim: I2CA 25-200, HA-966 2.5-10 mg/kg. How it is done: (§3) Inset: Effects of ACPC on tail suspension-induced immobility. Values are mean standard error of immobility (sec.) during a 6 minute test. The number of animals used in this test was: VEH, 16; ACPC, 200 mg/kg, 6; 300 mg/kg, 9 and 400 mg/kg, 7. Male C57Bl/6J mice [20-25 g](Jackson Laboratories, Bar Harbor, ME) were injected with ACPC. Fifteen minutes later, mice were suspended by the tail and the duration of immobility measured as described. […] 7-chlorokynurenic acid (25-150 mg/kg), indole2-carboxylic acid (I2CA) (25-200 mg/kg), 3-amino-1-hydroxypyrrolidone (HA-966) (2.5-10 mg/kg), cycloleucine (100-400 mg/kg) and 1-aminocyclobutanecarboxylic acid (ACBC) (50-100 mg/kg) were tested under identical conditions to those employed for the other agents (Table 1 and FIG. 1).

The nature of series [5]: ambulatory time in the open field (tail suspension study). It counts as in vivo, C57Bl/6J mice. The settings on record: 400 mg/kg.
Series [6] is described as follows: tail suspension test, duration of immobility. It is filed as in vivo, mice (male C57Bl/6J). The settings on record: 200-400 mg/kg, 15 min before test; F(2,31)=29, p<0.0001. How it is done:
as §3

The subject of series [7] is NMDA-gated cation channel. The settings on record: compared with glycine; cited from earlier work.
For series [8], the target named is strychnine sensitive glycine receptors. The settings on record: cited from earlier work.
The conditions of series [9]: cited from earlier work.
Series [10] has as its target strychnine-insensitive glycine receptors. The settings on record: cited from earlier work.
The conditions of series [11]: cited from earlier work. The source holds these as a separate data set.
Series [12] is classed as in vivo, mice (male NIH/HSD). The settings on record: for ACTIVITY (time spent ambulating in an open field): 30 min before test, mean ± SEM.
The conditions of series [13]: 60 min after 800 mg/kg i.p.; data not shown. How it is done:
as §1

The mark [14] stands for this setting: 0.1 mg/kg i.p., 15 min before test.
Setting [15] is: 0.5 mg/kg i.p., 15 min before test.
The mark [16] stands for this setting: 1 mg/kg i.p., 15 min before test.
Setting [17] is: 7-chlorokynurenic acid 25-150, I2CA 25-200, HA-966 2.5-10, cycloleucine 100-400, ACBC 50-100 mg/kg.

Molecules are shown by their SMILES. Where two headings read alike, the source gives them in different places.

On to `C[C@]12N[C@H](Cc3ccccc31)c1ccccc12` (racemic) [MK-801, (+)-5-methyl-10,11-dihydro-5H-dibenzo[a,d]cycloheptene-5, 10-imine], for which the “ACTIVITY (time spent ambulating in an open field)” value came out at 144 ± 4 s in series [1] (setting [14]), 201 ± 3 s in series [1] (setting [15]) and 170 ± 14 s in [1] (setting [16]). The “increase in ambulatory time in an open field” value in [1] (0.5 mg/kg) was 34%. Moreover, in [1] (0.5 mg/kg i.p., 15 min before test, change versus control), the ACTIVITY % entry is given as “+34%”. For the same compound, in series [1] (0.1 and 1 mg/kg), the “effect on ambulatory time” value is given as “did not alter ambulatory time”. The IMMOBILITY % in series [2] (setting [14]) is on record as -43%; in series [2] (setting [15]), -92%; in [2] (setting [16]), -54%. The IMMOBILITY in [2] (0.1 mg/kg i.p., 15 min before test, mean ± SEM) came to 80 ± 10 s; in series [2] (0.5 mg/kg i.p., 15 min before test, mean ± SEM), 11 ± 4 s; in series [2] (1 mg/kg i.p., 15 min before test, mean ± SEM), 64 ± 23 s. Also, in series [2] (0.5 mg/kg), the “maximum reduction of duration of immobility” value was determined as 92%. The “reduction of duration of immobility” value in [2] (0.1 and 1 mg/kg) is given as 43-54%. Moreover, in [2] (biphasic, doses of Table 1), the “effect on duration of immobility in the forced swim test” value is on record as “reduced significantly the duration of immobility”. Further, in the series with NMDA receptor complex, the “activity at the NMDA receptor complex” value was “non-competitive NMDA antagonist”. In addition, the “activity in the antidepressant models” value in [3] is reported as “mimic clinically effective antidepressants in these models”.

Turning to `O=C(O)c1cc(O)c2ccc(Cl)cc2n1` [7-chlorokynurenic acid], the “effect on immobility in the forced swim test” value in series [2] (setting [17]) was “did not reduce immobility in the forced swim test”.

Consider `NC1(C(=O)O)CCC1` [ACBC, 1-aminocyclobutanecarboxylic acid], for which the “behavioral effects prior to forced swim” value in series [4] is “marked behavioral effects, including ataxia”. In series [2] (setting [17]), the “effect on immobility in the forced swim test” value is recorded as “did not reduce immobility in the forced swim test”.

What is called IC50 is the concentration at which inhibition is half-maximal. Broadly, the Ki is the equilibrium dissociation constant of an inhibitor or competing ligand from its target. Turning to `NC1(C(=O)O)CC1` [ACPC, 1-aminocyclopropanecarboxylic acid], the “increase in ambulatory time” value in [1] (600 mg/kg, F(5,60)=10, p<0.0001) was found to be 29%. The “effect of glycine on the locomotor effects of ACPC in the open field” value in [1] (glycine 800 mg/kg i.p. 45 min prior to ACPC 400 mg/kg) was “partial antagonism”. Further, the “increase in ambulatory time in the open field” value in [5] is listed as 18%. In addition, the “effect on immobility in the tail suspension test” value in [6] is “reduction in immobility”. Moreover, the “efficacy in stimulating [3H]MK-801 binding” value in [7] is given as “significantly less efficacious than glycine”. Besides, the IC50 in series [8] was greater than 1000 µM. Further, the minimal effective dose in series [2] was 100 mg/kg. In addition, in [2] (mouse, in vivo), the “effect of glycine on the action of ACPC in the forced swim test” value is reported as “completely abolished”, the “effect on immobility in the forced swim test” value was “reduced immobility in the forced swim test in a dosedependent fashion” and the “maximum reduction of immobility in the forced swim test” value was 65%. In addition, in series [2] (mouse, in vivo, 200 mg/kg), the “further effect on immobility at higher doses” value is recorded as “no further reductions in immobility”. For the same compound, the “anticonflict actions in animal models” value in [9] was “possesses anticonflict actions in animal models”. Besides, in [10], the Ki was roughly 0.032 µM; the “activity at the strychnine-insensitive glycine binding site” value is “potent and selective partial agonist”. The “muscle relaxation or ataxia” value in series [11] is given as “do not produce the muscle relaxation or ataxia”. In series [3], the “activity in the antidepressant models” value was “mimic clinically effective antidepressants in these models”.

As to `COC(=O)C1(N)CC1` [ACPCM, methyl 1-aminocyclopropanecarboxylate], the minimal effective dose in [2] (Table 2) is 50 mg/kg. Further, the IMMOBILITY in series [2] (Table 2, 25 mg/kg) came to 126 ± 8 s; in series [2] (Table 2, 50 mg/kg) it was 89 ± 17 s; in [2] (Table 2, 100 mg/kg) it was 40 ± 18 s; in series [2] (Table 2, 150 mg/kg), 69 ± 10 s. The IMMOBILITY % in series [2] (Table 2, 25 mg/kg) was -8%; in [2] (Table 2, 50 mg/kg), -35%; in series [2] (Table 2, 100 mg/kg), -71%; in series [2] (Table 2, 150 mg/kg), -50%.

For `NC(CCCCCP(=O)(O)O)C(=O)O` (stereo not drawn) [AP-7, 2-amino-7-phosphonoheptanoic acid], the “effect on ambulatory time in an open field” value in series [1] (doses of Table 1) is reported as “without affecting ambulatory time”. Moreover, the “ACTIVITY (time spent ambulating in an open field)” value was 144 ± 5 s in series [12] (40 mg/kg i.p.), 167 ± 16 s in series [12] (80 mg/kg i.p.), 153 ± 5 s in series [12] (100 mg/kg i.p.) and 134 ± 10 s in series [12] (200 mg/kg i.p.). Further, the IMMOBILITY amounted to 141 ± 21 s in [2] (40 mg/kg i.p., 30 min before test, mean ± SEM); 153 ± 9 s in [2] (80 mg/kg i.p., 30 min before test, mean ± SEM); 93 ± 8 s in series [2] (100 mg/kg i.p., 30 min before test, mean ± SEM); 55 ± 13 s in series [2] (200 mg/kg i.p., 30 min before test, mean ± SEM). Moreover, the IMMOBILITY % in series [2] (100 mg/kg i.p., 30 min before test) is on record as -35%; in series [2] (200 mg/kg i.p., 30 min before test) it was -62%. Moreover, the “effect on duration of immobility in the forced swim test” value in series [2] (F(4,71) = 17, p<0.0001) is “significant, dose dependent reduction in the duration of immobility”. In the series with NMDA receptor complex, the “activity at the NMDA receptor complex” value is “competitive antagonist”. In addition, the “activity in the antidepressant models” value in [3] is “mimic clinically effective antidepressants in these models”.

In the case of `NC1CCN(O)C1=O` (stereo not drawn) [HA-966, 3-amino-1-hydroxypyrrolidone], in series [4], the “lethality combined with forced swim” value was “lethal when combined with forced swim” and the “behavioral effects prior to forced swim” value is given as “marked behavioral effects, including ataxia”. Further, in [2] (setting [17]), the “effect on immobility in the forced swim test” value is listed as “did not reduce immobility in the forced swim test”.

`O=C(O)c1cc2ccccc2[nH]1` [I2CA, indole2-carboxylic acid]: in series [4], the “lethality combined with forced swim” value is “lethal when combined with forced swim” and the “behavioral effects prior to forced swim” value is on record as “marked behavioral effects, including ataxia”. The “effect on immobility in the forced swim test” value in [2] (setting [17]) is given as “did not reduce immobility in the forced swim test”.

Take `NC1(C(=O)O)CCCC1` [cycloleucine]: the “effect on immobility in the forced swim test” value in [2] (setting [17]) is given as “did not reduce immobility in the forced swim test”.

For the compound `NCC(=O)O` [glycine], the “intrinsic activity in the open field” value in series [12] (mouse, in vivo) is given as “devoid of intrinsic activity”. Besides, in series [2] (mouse, in vivo), the “intrinsic activity in the forced swim test” value is “devoid of intrinsic activity”. In addition, in series [13], the “concentrations of other amino acids (glutamate, serine, taurine, GABA, alanine) in the hippocampus” value is recorded as “unchanged”.

The record behind these values is patent US5086072A, “Treatment of mood disorders with functional antagonists of the glycine/NMDA receptor complex” (The United States of America as represented by the …, priority 1990, dated 1992).
